According to PubChem BioAssay AID1919010 (Molecular Pharmacology Branch, DTP, NCI, 2023):

Test system: Hs578T complex spheroid growth, percent test/control
Assay: Anticancer human tumor Hs578T cell line growth inhibition [AhR];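 note: luminescent viability signal as a proxy for spheroid growth; spheroids exposed to agents for one week after three days of growth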
Conditions: for IC50: curve of first compound; for viability, T/C: stronger effect = lower value; active = viability on the fitted dose curve at most 10% of control; inactive = the rest
Outline: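 Complex tumor spheroids co-cultured with HUVEC and human MSC stroma; AhR antagonists tested in combination with standard-of-care and investigational agents. Top concentration at or near clinical Cmax (else 10 microM), half-log dilutions; growth expressed as percent test/control.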

CC(C)c1c(-c2ccccc2)nc2c(C#N)c[nH]n2c1=O + Cc1cncc(-c2nc(NCCc3c[nH]c4ccccc34)c3ncn(C(C)C)c3n2)c1
< 0.0316 µM: IC50 (second compound 10 µM)
active: viability, T/C (second compound 10 µM, first compound 0.0316 µM) 4.95% | viability, T/C (second compound 10 µM, first compound 0.1 µM) 6.12% | viability, T/C (second compound 10 µM, first compound 0.316 µM) 4.81% | viability, T/C (second compound 10 µM, first compound 1 µM) 4.87% | viability, T/C (second compound 10 µM, first compound 3.16 µM) 5.51% | viability, T/C (second compound 10 µM, first compound 10 µM) 7.39%
inactive: viability, T/C (second compound 0.1 µM, first compound 0.0316 µM) 114% | viability, T/C (second compound 0.1 µM, first compound 0.1 µM) 113% | viability, T/C (second compound 0.1 µM, first compound 0.316 µM) 110% | viability, T/C (second compound 0.1 µM, first compound 1 µM) 108% | viability, T/C (second compound 0.1 µM, first compound 3.16 µM) 109% | viability, T/C (second compound 0.1 µM, first compound 10 µM) 96.4% | viability, T/C (second compound 0.316 µM, first compound 0.0316 µM) 112% | viability, T/C (second compound 0.316 µM, first compound 0.1 µM) 104% | viability, T/C (second compound 0.316 µM, first compound 0.316 µM) 113% | viability, T/C (second compound 0.316 µM, first compound 1 µM) 103% | viability, T/C (second compound 0.316 µM, first compound 3.16 µM) 109% | viability, T/C (second compound 0.316 µM, first compound 10 µM) 107% | viability, T/C (second compound 1 µM, first compound 0.0316 µM) 99.6% | viability, T/C (second compound 1 µM, first compound 0.1 µM) 101% | viability, T/C (second compound 1 µM, first compound 0.316 µM) 107% | viability, T/C (second compound 1 µM, first compound 1 µM) 100% | viability, T/C (second compound 1 µM, first compound 3.16 µM) 102% | viability, T/C (second compound 1 µM, first compound 10 µM) 99.5% | viability, T/C (second compound 3.16 µM, first compound 0.0316 µM) 61.3% | viability, T/C (second compound 3.16 µM, first compound 0.1 µM) 65.5% | viability, T/C (second compound 3.16 µM, first compound 0.316 µM) 68.6% | viability, T/C (second compound 3.16 µM, first compound 1 µM) 62.9% | viability, T/C (second compound 3.16 µM, first compound 3.16 µM) 55.8% | viability, T/C (second compound 3.16 µM, first compound 10 µM) 66.9%
> 10 µM: IC50 (second compound 0.1 µM) | IC50 (second compound 0.316 µM) | IC50 (second compound 1 µM) | IC50 (second compound 3.16 µM)
